Laboratory results published in patent US20250327074A1 (SHAOXING INSTITUTE, ZHEJIANG UNIVERSITY, priority 2024, published 2025).

Key:
Format in all cases: cell-based
[1] = tested on: Ser-tRNACGA knockout HEK293T cell lines 1A8, 2A3, 3A12, 4C23; test: LC-MS TCG recoding efficiency in Ser-tRNACGA knockout cell lines; settings: for efficiency in recoding TCG codon at position 151 of EGFP: single-copy recoding tRNA
Description: Four sgRNAs targeting Ser-tRNACGA were designed (Table 6). CRISPR/Cas9 was used to generate knockout polyclonal populations, followed by FACS sorting to isolate monoclonal lines. Sequencing confirmed successful editing in four knockout strains: 1A8, 2A3, 3A12, and 4C23 (FIG. 6).
This example evaluates the TCG codon recoding capability of the knockout cell lines using the TetRS/PylTCGA recoding system as a model.

[2] = tested on: rare codon in EGFP reporter, HEK293T cells; test: LC-MS recoding efficiency of rare codons in EGFP reporter; settings: TetRS/PylTyyy, 200 μM TetBu, HEK293T
Method: (§1) The recoding translation system and the rare codon-bearing POI were co-transfected into HEK293T cells. Then, two methods were used to calculate the ncAA recoding rate: 1) LC-MS analysis: the protein of the POI mixture, including the fraction incorporated with ncAA and the fraction with NAA at rare codons, was purified by Ni2+-NTA beads and subjected to LC-MS analysis. The ncAA recoding rate was determined by the intensity of two fractions quantified by LC-MS. 2) TCO-PEG5000 mass tag labeling analysis: this method was suitable for quantifying the TetBu recoding rate in this work. When the protein mixture was incubated with TCO-PEG5000 mass tag, the protein incorporated with TetBu would be labeled by this mass tag and migrated much slower in SDS-PAGE.
(§2) When the recoding system (TetRS/PylTyyy) is co-expressed with a target protein carrying the recoding codon in HEK293T, the recoding codon can be translated into a natural amino acid by endogenous tRNA (Dec-tRNA), or recoding into TetBu by the engineered tRNA (Rec-tRNA), producing a mixture of protein byproducts (with a single-site mutation) and the target protein containing TetBu. Based on this, two methods were established to assess sense codon recoding efficiency: a) Liquid chromatography-mass spectrometry (LC-MS) for differentiates proteins based on molecular weight differences, and b) TCO-PEG5000 macromolecular label target proteins containing TetBu, which increases their molecular weight by 5 kDa. The shift in protein bands is detected via immunoblotting (FIG. 2).
(1) Transfection: Plasmids encoding the TetBu/PylTyyy recoding system (where xxx represents different codons and yyy represents different anticodons) were co-transfected with the plasmid mCherry-T2A-EGFP^N149XXX-6×His at a 1:1 (g:g) ratio. For a 10 cm dish, the total transfection mixture contained 20 μg DNA+[…] Lipofectamine 2000+2 mL Opti-MEM.
(2) Protein expression and purification: After 6 hours, the medium was replaced with fresh DMEM containing 200 μM TetBu for 40 hours to induce protein expression. Cells were lysed in 1 mL Modified RIPA Buffer, and the supernatant was purified using Ni-NTA beads.
(3) LC-MS analysis of recoding efficiency:Using a Waters Xevo G2-XS TOF Mass Spectrometer, the recoding efficiency of rare codons (CTA, GTA, CGT, CCG, GCG, ACG, and TCG) at the EGFP149 site was evaluated.
(2) Cell transfection and protein expression purification: HEK293T cells were seeded in 10 cm culture dishes and transfected at 60-70% confluency. For each transfection, […] of plasmid carrying mCherry-T2A-EGFPY151TCG-6×His was co-transfected with one of the following recoding system plasmids: chPhe_AcFRS/12×(U6-chPheTCGA), EcTyr_OmeYRS/12×(U6-EcTyrTCGA), or EcLeu_OmeYRS/12×(U6-EcLeuTCGA). After 6 hours, the medium was replaced with serine/glycine-free DMEM/F12 containing 500 μM of the respective unnatural amino acid. Following protein expression and purification, LC-MS was used to determine TCG recoding efficiency at position 151 of EGFP. Detailed transfection and purification protocols following section 2.2.1.2, with cell culture conditions in serine-free medium as described in Example 2.

HEK293T cells proteome = test: Proteome background incorporation, TCO-biotin streptavidin dot blot; settings: CTA and TCG codon groups among 7 rare codons; 200 μM TetBu
Description: When the TetRS/PylTyyy recoding system is expressed in HEK293T, it recodes endogenous genomic codons into TetBu, generating a modified proteome containing TetBu. The IEDDA reaction between TetBu and trans-cyclooctene (TCO) enables biotinylation of TetBu-containing proteins via TCO-Biotin. Streptavidin dot blot detects biotin signals, where signal intensity correlates with TetBu incorporation levels (FIG. 3, right).
1.3.2 Screening of Rare Codons with Low Background Incorporation • (1) Intracellular expression of the recoding system: Plasmids encoding TetBu/PylTyyy (yyy=anticodons for TCG, ACG, GCG, CCG, CGT, GTA, CTA) were transfected using Lipofectamine 2000. After 6 hours, cells were treated with fresh DMEM±200 μM TetBu for 40 hours. Cells were lysed in 100 μL Modified RIPA Buffer to obtain whole-cell lysates.
The reaction system was prepared as described in Table 3. Reaction products were mixed with 7 μL bromophenol blue-free 4×SDS loading buffer, boiled at 100° C. for 10 min, and analyzed via streptavidin dot blot.
Samples were spotted onto a nitrocellulose membrane and air-dried at room temperature for 15 min. The membrane was washed with 10 mL TBST (80 rpm, 5 min) three times, discarding the supernatant each time. Blocking was performed with 10 mL TBST containing 5% non-fat milk for 1 h, followed by three additional TBST washes (10 mL, 80 rpm, 5 min each). […]

[3] = tested on: IL-1B, IL-2, IL-4, IL-6 bearing TCG codon, HEK293T cells; test: TCO-PEG5000 mass tag labeling recoding efficiency in interleukin proteins; settings: TetRS/PylTCGA, 200 μM TetBu, serine/glycine-free
Method: as §1, §2
The recoding system and plasmids containing the TCG codon for the cytokines were co-transfected into HEK293T cells. Six hours post-transfection, the medium was replaced with serine/glycine-free DMEM/F12 medium supplemented with 200 μM TetBu. After 40 hours of protein expression, 500 μL of Modified RIPA lysis buffer was added to each well to lyse the cells. The TCO-PEG5000 labeling method was used to assess the recoding efficiency.

For `CCCCc1nnc(-c2cccc(C[C@H](N)C(=O)O)c2)nn1` [TetBu, (S)-2-amino-3-(3-(6-butyl-1,2,4,5-tetrazin-3-yl)phenyl)propanoic acid], the “efficiency in recoding TCG codon at position 151 of EGFP” value (shortened to “efficiency in recoding TCG codon”) ([1]; knockout cell line 1A8) was 61%, the “efficiency in recoding TCG codon” value ([1]; knockout cell line 2A3) was 51% and the “efficiency in recoding TCG codon” value ([1]; knockout cell line 3A12) was 58%. The “efficiency in recoding TCG codon” value ([1]; knockout cell line 4C23) was 68%, the “improvement of TCG recoding compared to HEK293T cells” value ([1]; strain 4C23) was 1.4 fold and the recoding efficiency ([2]; ACG codon at EGFP149 site) was 7.1%. For the same compound, the recoding efficiency ([2]; TCG codon at EGFP149 site) was 8.5%, the “proteome-wide background TetBu incorporation (biotin signal intensity)” value (HEK293T cells proteome) was “lowest biotin signal intensity” and the TetBu recoding efficiency ([3]; position 62 of IL-2) was 80.8%. The TetBu recoding efficiency ([3]; position 87 of IL-6) was 83.9%, the TetBu recoding efficiency ([3]; position 121 of IL-4) was 99.3% and the TetBu recoding efficiency ([3]; position 205 of IL-1B) was 78.10%.
